Literature values as cited in patent US4258180A, “C6-Modified cyclodextrin sulfate salts as complement inhibitors” (American Cyanamid Company, priority 1979, dated 1981).
Where a name gives a salt, the structure may show the parent alone.

Tested on: complement system
Details: British Journal of Experimental Pathology, 33, 327-339 (1952); cited from earlier work

Compound	anticomplementary effect
Nc1ccc2cc(S(=O)(=O)O)cc(O)c2c1N=Nc1ccc(NC(=O)Nc2ccc(N=Nc3c(N)ccc4cc(S(=O)(=O)O)cc(O)c34)c(S(=O)(=O)O)c2)cc1S(=O)(=O)O [chlorazol fast pink, 3,3'-ureylenebis-[6-(2-amino-8-hydroxy-6-sulfo-1-naphthylazo)]benzenesulfonic acid, tetrasodium salt]	anticomplementary effect
heparin	anticomplementary effect
